The source of these data is patent US8193192B2, “Heterocyclic FXR binding compounds” (Phenex Pharmaceuticals AG, priority 2006, dated 2012).

The term EC50 denotes the midpoint of the concentration-response curve. One may read the solubility as the dissolved amount per volume that the medium holds. The half-life is the time needed for the level to fall by half in the phase considered. The microsomal CLint is the capacity of the preparation to metabolise the compound, expressed as a volume cleared per time. Read a high microsomal CLint as rapid turnover. Usually melting point stands for the temperature of the solid-liquid transition.

Data set [1] has as its target T1, human farnesoid X receptor (FXR) alpha ligand binding domain (Homo sapiens, UniProt Q96RI1).
T1 construct: made in house; host or cells: E. coli BL21(DE3), vector pDEST15
T1 sequence (Q96RI1 187-472 isoform Q96RI1-2): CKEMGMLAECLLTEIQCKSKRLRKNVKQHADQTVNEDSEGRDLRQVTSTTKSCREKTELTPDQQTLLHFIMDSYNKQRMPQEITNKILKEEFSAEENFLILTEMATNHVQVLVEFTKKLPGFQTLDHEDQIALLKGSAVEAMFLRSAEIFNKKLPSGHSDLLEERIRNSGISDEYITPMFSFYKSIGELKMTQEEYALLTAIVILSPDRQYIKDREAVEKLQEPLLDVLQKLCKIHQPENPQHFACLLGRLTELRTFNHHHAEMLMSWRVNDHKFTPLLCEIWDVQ
Description: FRET activity assay (ligand mediated cofactor peptide interaction, LANCE). It is filed as biochemical. The settings on record: FXR-LBD/SRC-1 peptide interaction. As for the experimental part:
Determination of a ligand mediated cofactor peptide interaction to quantify ligand binding to the nuclear receptor Farnesoid X Receptor (FXR) was performed as follows:
Preparation of human farnesoid X receptor (FXR) alpha ligand binding domain: The human FXRalpha ligand binding domain (LBD) was expressed in E. coli strain BL21(DE3) as an N-terminally glutathione-S-transferase (GST) tagged fusion protein. The DNA encoding the FXR ligand binding domain was cloned into vector pDEST15 (Invitrogen). Expression was under control of an IPTG inducible T7 promoter. The amino acid boundaries of the ligand binding domain were amino acids 187-472 of Database entry NM_005123 (RefSeq). Expression and purification of the FXR-LBD: An overnight preculture of a transformed E. coli strain was diluted 1:20 in LB-Ampicillin medium and grown at 30° C. to an optical density of OD600=0.4-0.6. Gene expression was then induced by addition of 0.5 mM IPTG. Cells were incubated an additional 6 h at 30° C., 180 rpm. Cells were collected by centrifugation (7000×g, 7 min, room temperature). Per liter of original cell culture, cells were resuspended in 10 ml lysis buffer (50 mM Glucose, 50 mM Tris pH 7.9, 1 mM EDTA and 4 mg/ml lysozyme) and left on ice for 30 min. Cells were then subjected to sonication and cell debris removed via centrifugation (22000×g, 30 min, 4° C.). Per 10 ml of supernatant 0.5 ml prewashed Glutathione 4B sepharose slurry (Qiagen) was added and the suspension kept slowly rotating for 1 h at 4° C. Glutathione 4B sepharose beads were pelleted by centrifugation (2000 g, 15 sec, 4° C.) and washed twice in wash buffer (25 mM Tris, 50 mM KCl, 4 mM MgCl2 and 1 M NaCl). The pellet was resuspended in 3 ml elution buffer per liter of original culture (elution buffer: 20 mM Tris, 60 mM KCl, 5 mM MgCl2 and 80 mM glutathione added immediately prior to use as powder). The suspension was left rotating for 15 min at 4° C., the beads pelleted and eluted again with half the volume of elution buffer than the first time. The eluates were pooled and dialysed overnight in 20 mM Hepes buffer (pH 7.5) containing 60 mM KCl, 5 mM MgCl2 as well as 1 mM dithiothreitol and 10% (v/v) glycerol. The protein was analysed by SDS-Page.
The method measures the ability of putative ligands to modulate the interaction between the purified bacterial expressed FXR ligand binding domain (LBD) and a synthetic biotinylated peptide based on residues 676-700 of SRC-1 (LCD2, 676-700). The sequence of the peptide used was B-[…]-COOH where the N-terminus was biotinylated (B). The ligand binding domain (LBD) of FXR was expressed as fusion protein with GST in BL-21 cells using the vector pDEST15. Cells were lysed by sonication, and the fusion proteins purified over glutathione sepharose (Pharmacia) according to the manufacturers instructions. […] For ease of handling and reduction of background from compound fluorescence LANCE technology makes use of generic fluorophore labels and time resolved detection Assays were done in a final volume of 25 μl in a 384 well plate, in a Tris-based buffer (20 mM Tris-HCl pH 7.5; 60 mM KCl, 5 mM MgCl2; 35 ng/μl BSA), containing 20-60 ng/well recombinantly expressed FXR-LBD fused to GST, 200-600 nM N-terminally biotinylated peptide, representing SRC1 aminoacids 676-700, 200 ng/well Streptavidin-xIAPC conjugate (Prozyme) and 6-10 ng/well Eu W1024-antiGST (Perkin Elmer). […]
(In general: TR-FRET usually uses a lanthanide donor and a delayed reading to cut background.)

A short description of data set [2]: Aqueous solubility assay, Protocol B, shake-flask method. Format: physicochemical. To be noted: 10 mM PBS buffer with 1% MeOH, kinetic from dmso stock, 10 mM PBS buffer pH 7.4, 1% MeOH, room temperature, read-out: Aqueous solubility pH 7.4 (μM) (±standard deviation), shake-flask method. As for the experimental part:
(§1) Aqueous solubility of compounds was determined by nephelometry or by shake-flask method as follows:
Protocol B, Shake-Flask Method:
Sample preparation: Sample and standard solution preparation is performed by mixing equal volumes of acetonitrile containing the internal standard (1 μM final concentration) with sample and calibration standard solutions (100 μl). After vigorously shaking (10 seconds) the samples are centrifuged (6000 g) for 5 minutes at 20° C. Aliquots of the particle-free supernatants are transferred to 200 μl sample vials and subsequently subjected to LC-MS/MS analysis. Assay procedure: Test concentration was 100 μM in 10 mM PBS buffer pH 7.4 with a final MeOH concentration of 1%. The volume of the incubation solution was 500 μl. Depending on each compound's solubility in MeOH, the stock concentration and the incubation concentration was adapted. The test solutions in quadruplicates were shaken at 300 rpm over a 20 hours period at room temperature, followed by centrifugation at 20000 g for 30 minutes to separate the solid phase. 100 μl of particle free sample are added to 100 μl acetonitrile containing the internal standard. The aqueous solubility of the compounds was determined by measuring the concentration of the PBS buffer supernatant by HPLC-MS/MS. Aqueous solubilities of examples and reference compounds are listed below in Table 3.

Data set [3] in a line: Microsomal stability assay. Format: in vitro ADME. The settings on record: pH 7.4; mouse liver microsomes, 37° C. As for the experimental part:
Microsomal Stability Assay
In vitro assays were performed to evaluate the metabolic stability of test items in liver microsomes originating from mouse. Preparation of working standards of test items: Working solutions were prepared for each calibration level by appropriate dilution of the corresponding stock solution, depending on each compound's solubility in acetonitrile or acetonitrile/water. Calibration standards were prepared by spiking 196 μl standard matrix with 4 μl of the corresponding working solution. The standard matrix consists of 0.15 mg/ml of microsomal protein in phosphate buffer (100 mM pH 7.4), the final standard solutions contain 2% acetonitrile. The samples and standard solutions were extracted with ethyl acetate, isolation of the compounds was performed by addition of 600 μl ethyl acetate containing the internal standard (0.1 μM) to 200 μl sample and calibration standard. After vigorously shaking (10 minutes) and centrifugation (5000 g) the aqueous phase was separated by freezing in an acetone/dry ice bath and the organic phase is evaporated to dryness using a vacuum centrifuge. Samples were reconstituted in 200 μl acetonitrile/water mix (1:1 v/v) and subsequently subjected to LC-MS/MS. The incubation solution (180 μl) consisted of 90 μl of a microsomal suspension of 0.33 mg/ml of protein in phosphate buffer 100 mM pH 7.4 and 90 μl NADP-regenerating system. The reaction was initiated by the addition of 20 μl of test compound (in 20% acetonitrile) to the preincubated microsomes/buffer mix at 37° C. 200 μl samples were removed from the incubation after 0, 5, 10, and 30 minutes and processed for ethyl acetate extraction as described above. Negative controls using boiled microsomes (boiling water bath, 25 minutes) without regenerating system were run in parallel. The amount of compound in the samples is expressed as percentage of remaining compound compared to time point zero (=100%). These percentages were plotted against the corresponding time points. Intrinsic clearance (CLint) and half-life (t1/2) estimates were determined using the rate of parent disappearance and following formula (1) and (2). (1) CLint=(−k)×V×fu. (2) t1/2=ln 2/−k. Where CLint=intrinsic clearance [μl/min/mg protein], t1/2=half life [min], k=slope from the linear regression of log [test compound] versus time plot [1/min]. V=6666.7; fu=unbound fraction in the blood. Applying this protocol gave microsomal stabilities for examples and reference compounds as listed below in Table 6: […]
In general terms: Liver microsomes are a subcellular fraction often used to study metabolism.

The conditions of data set [4]: The Merck index, 10th edition; cited from earlier work.
The next data set in a line: PAMPA permeability assay. To be noted: % of compound found in the receiver compartment after 16 hours; PBS pH 7.4, 5% DMSO, 23° C. Format: in vitro ADME. As for the experimental part: Artificial membrane permeability was determined as follows: Tested compounds were dissolved to 10 mM in 100% DMSO. Permeability of compounds was measured in PBS (pH 7.4), 5% DMSO at 23° C. Safire (Tecan) plate reader was used for measurement the UV/Vis absorption. Protocol: Dilute stocks of tested compounds and controls with PBS to 1.67 mM and mix well by pipetting, add 280 μl of PBS, 5% DMSO to acceptor plate, add 5 μl of 2% L-α-Phosphatidylcholine suspension in dodecane to the membrane of donor plate. Immediately add 98 μl of PBS to donor plate and make the sandwich with acceptor plate. Add 42 μl of tested compounds and controls dilutions to […], cover the plate, place into camera and incubate for 16 hours. Make the equilibrium plate, add 225 μl of PBS, 3.7% DMSO and 25 μl of tested compounds and controls dilutions to UV plate. After 16 hours pull the donor plate out and transfer 250 μl from acceptor plate to UV plate. Scan UV plate on Safire (Tecan) plate reader from […]. Permeability is reported in % of compound found in the receiver compartment after the incubation period. Applying this protocol, PAMPA permeabilities of examples and reference compounds were determined as follows (see Table 4): […]
In general terms: In PAMPA a lipid-coated filter parts donor from acceptor wells.

Data set [5] can be described thus: Aqueous solubility assay, Protocol A, nephelometry method. It is filed as physicochemical. The settings on record: PBS with 5% DMSO, aqueous with cosolvent or surfactant or cyclodextrin, kinetic from dmso stock, PBS pH 7.4, 5% DMSO, 23° C. As for the experimental part:
as §1
Protocol A, Nephelometry Method:
Solubility of compounds was measured in PBS (pH 7.4), 5% DMSO at 23° C. Nepheloskan Ascent (Thermo Electron Corporation) nephelometer was used for measurement of light scattering. Tested compounds were dissolved in DMSO to 10 mM. Prior to measurement the compounds were further diluted with PBS in the wells to final compound concentrations of 100, 70, 50, 35, 25, 17, 12 and <10 μg/ml.
The plates were incubated at room temperature for 24 hours to reach equilibrium and the scattered light was measured. Assay validation: Aqueous solubility of acetylsalicylic acid was determined to validate the assay. […] Aqueous solubilities of examples and reference compounds are listed below in Table 2.

The structures appear in SMILES notation. ≈ marks a conversion by molar mass, not a printed value.

For the compound `CC(C)c1onc(-c2c(Cl)cccc2Cl)c1COc1ccc(Oc2ccc(C(=O)NS(C)(=O)=O)cc2)cn1` [Example 4, 4-(6-((3-(2,6-Dichlorophenyl)-5-isopropylisoxazol-4-yl)methoxy)pyridin-3-yloxy)-N-(methylsulfonyl)benzamide], the melting point fell in the range of 182 to 184 °C. The compound also displayed a 50% effective concentration (EC50) in data set [1] of at most 1000 nM. Moreover, the solubility at 20 h in data set [2] was found to be 114 µM (≈ 65.7 µg/mL). In data set [3], this compound showed a half-life of 30 min and a microsomal CLint of 153 µL/min/mg.

With `CC(C)c1onc(-c2c(Cl)cccc2Cl)c1COc1ccc(Oc2ccc(C(=O)O)cc2)nn1` [Example 5, 4-(6-((3-(2,6-Dichlorophenyl)-5-isopropylisoxazol-4-yl)methoxy)pyridazin-3-yloxy)benzoic acid], the concentration giving a half-maximal response (EC50) in data set [1] was at most 1000 nM.

`CC(=O)Oc1ccccc1C(=O)O` [acetylsalicylic acid]: the “Aqueous solubility, reported literature value” in data set [4] is listed as “at least 2.17 mg/ml”.

Take `CC(C)c1onc(-c2c(Cl)cccc2Cl)c1COc1ccc(/C=C/c2cccc(C(=O)O)c2)c(Cl)c1` [Compound B, reference compound]: the “PAMPA Permeability” value in the data set “PAMPA permeability assay” amounted to 7%.

In turn, `CC(C)c1onc(-c2c(Cl)cccc2Cl)c1COc1ccc(Oc2cccc(C(=O)O)c2)cn1` [Example 2, 3-(6-((3-(2,6-Dichlorophenyl)-5-isopropylisoxazol-4-yl)methoxy)pyridin-3-yloxy)benzoic acid] displayed a concentration for a half-maximal effect (EC50) in data set [1] of at most 1000 nM. Besides, in the data set “PAMPA permeability assay”, the “PAMPA Permeability” value is listed as 43%.

As for `CC(C)c1onc(-c2c(Cl)cccc2Cl)c1COc1ccc(Oc2ccc(C(=O)O)cc2)cn1` [Example 1, 4-(6-((3-(2,6-Dichlorophenyl)-5-isopropylisoxazol-4-yl)methoxy)pyridin-3-yloxy)benzoic acid], in data set [1], the EC50 is at most 1000 nM. In data set [5], the solubility at 24 h was above 200 µM. The “PAMPA Permeability” value in the data set “PAMPA permeability assay” was 54%.
